Test results taken from US20250367170A1, “TOPICAL ANGIOTENSIN II RECEPTOR BLOCKERS (ARBS) FOR TREATING EYE CONDITIONS” (The Cleveland Clinic Foundation, priority 2022, published 2025).

Key:
Type in all cases: in vivo, New Zealand White rabbits
[1] = system: rabbit corneas after 1N NaOH alkali burn injury; experiment: Slit lamp stromal opacity area and intensity (ImageJ) one month after alkali burn; conditions: topical 0.2 mg/ml losartan and/or 1% prednisolone acetate six times per day
Method: All animal treatments and care were approved by the Institutional Animal Care and Use Committee (IACUC) at the Cleveland Clinic Foundation (Cleveland, OH, USA) and the Animal Care and Use Review Office of the Department of the Army (Fort Detrick, MD). All rabbits were treated in accordance with the tenets of the ARVO Statement for the Use of Animals in Ophthalmic and Vision Research. Sixteen 10- to 15-week-old female New Zealand White rabbits weighing 2.5 to 3.0 kg each were included in this example.
(§1) Alkali injuries were produced in one eye of rabbits with previously published methods^10 using 1N sodium hydroxide (Sigma, St. Louis, MO) in balanced salt solution (BSS, 0.64% sodium chloride, 0.075% potassium chloride, 0.048% calcium chloride dihydrate, 0.03% magnesium chloride hexahydrate, 0.39% sodium acetate trihydrate, 0.17% sodium citrate dihydrate, pH 7.5, Alcon, Ft. Worth, TX) and a 5 mm diameter circular Whatman No. 1 filter paper (Cat #1001-6508, Fisher Scientific) wetted with 100 μl of 1N NaOH solution. Following the alkali burn injury, the cornea was irrigated profusely with BSS. Each injured cornea also received one drop of ciprofloxacin (Alcon, Ft. Worth, TX, USA) ten minutes after surgery and four times a day for one week and at least 15 minutes apart from the study medications.
(§2) Worth TX), at least 5 minutes apart, or 4) 50 μl of BSS.
At one month after sodium hydroxide exposure and treatments, with the rabbits under ketamine-xylazine general anesthesia, the eyes were dilated with two drops of 1% tropicamide (Akom Co., Lake Forest, IL) for thirty minutes. The study eye in each rabbit had slit lamp photographs with standardized illumination level and angle of illumination at 20× magnification with a Topcon (Oakland, NJ, USA) SL-D7 slit lamp photography system. For each study eye, the total area of opacity was determined by outlining the opacity with the freehand selection tool using ImageJ 1.53a analysis software calibrated to mm^2. The “raw internal density” in pixels for the opacified area in each cornea was also determined using ImageJ.

[2] = system: central corneal neovascularization (CNV); experiment: Corneal angiography for central corneal neovascularization after alkali burn; conditions: topical six times per day, one month, all four vehicle corneas positive
Method: as §1, §2
All corneas had fluorescent angiography at the peak of dye passage in the cornea immediately after injection of 1.5 ml of 10% sodium fluorescein (McKesson, Irvine, TX) in the central ear vein with the slit lamp system and digital camera system using a “barrier filter” that only transmitted 520-530 nm, the peak of fluorescein emission, with broad illumination of the cornea, as previously described.^11

[3] = system: collagen type IV; experiment: IHC collagen type IV intensity in anterior and posterior stroma after alkali burn; conditions: one month
Method: Multiplex immunohistochemistry (IHC) was performed using previously described methods^8 and primary antibodies (Table 7) confirmed by western blotting and IHC to recognize rabbit antigens or isotypic control antibodies (Thermo Fisher Scientific, Waltham, MA), and secondary fluorescent tagged antibodies (Table 7). The collagen type IV antibody (Cat. #AB769, Millipore, Temecula CA) was raised against purified human and bovine collagen type IV that had been affinity purified with human and bovine collagen type IV crosslinked to agarose and cross-absorbed by the manufacturer with human and bovine collagens type I, II, III, V and VI to eliminate cross-reactivity. This collagen type IV antibody was shown previously to bind rabbit collagen IV in IHC,^8,9 and recognizes the alpha-1/alpha-2 chains but not the alpha-3 to alpha-6 chains. The keratocan antibody is raised against peptide […]-OH (SEQ ID NO:1). This marker was used to identify keratocytes in situ. […] All corneas in each group had IHC for collagen type IV. Images from each cornea were converted to uniform 300 DPI, 875×568 pixel, files. […] The staining intensity within each box was determined with the analyze histogram function and the mean of three boxes was the intensity value in the anterior or posterior stroma for that cornea.

CC(=O)OCC(=O)[C@@]1(O)CC[C@H]2[C@@H]3CCC4=CC(=O)C=C[C@]4(C)[C@H]3[C@@H](O)C[C@@]21C [prednisolone acetate]
total corneal opacity area measured with ImageJ, vs BSS vehicle [1]: decreased | total opacity in pixels in the opacified area of cornea, vs vehicle BSS group [1]: trended towards decreased total opacity | corneas (of four) that developed central corneal neovascularization [2]: one | mean intensity units of collagen type IV in the anterior stroma vs vehicle [3]: trend towards a decrease
